# Laboratory results from US11172673B2, “Platelet storage methods and compositions for same” (Children's Hospital Medical Center, priority 2014, dated 2021).
# Entries after “also recorded” stand apart in the source; their conditions may differ.
# Legend:
# [1] = target: T1, Cdc42 (Homo sapiens, UniProt P60953); test: Cdc42 activation in platelets, GST-PAK pulldown assay; assay type: cell-based; details: Casin 10 μM, FIG. 3B
# T1 construct: endogenous in cells; host or cells: human platelets
# Protocol: FIG. 3B. Collagen-induced Cdc42 activation is inhibited by Casin (10 μM) in a GST-PAK pulldown assay.
# (§1) Applicant has tested the ability of three chemical inhibitors, CASIN, NSC23766 and G04, targeting Cdc42, Rac1 and RhoA, respectively (FIG. 2), to inhibit the activity of the GTPases and the consequent cytoskeleton-dependent functions of human platelets. A rationally developed inhibitor of Cdc42 with activity on activation by guanine nucleotide exchange factors is CASIN (29, Nature Biotech under revision). CASIN was recently discovered by Zheng group as a small molecule that recognizes a pocket domain that specifically blocks the ability of GEF interaction with Cdc42 (FIG. 3A). CASIN is found to suppress of hematopoietic stem cell aging through its specific Cdc42 inhibitory activity (29). In platelets, it inhibits Cdc42 activation (FIG. 3B) and prevents collagen-induced platelet shape changes (FIG. 3C).
# [2] = system: platelets; test: Platelet actin filopodia structure / shape change, rhodamine-phalloidin staining; assay type: cell-based, human; details: Casin 10 μM, platelets adhered to coated collagen surface, FIG. 3C
# Protocol: FIG. 3C. Fibrinogen mediated platelet actin filopedia structure is blocked by Casin (10 μM). Rhodamine conjugated phalloidin-staining of platelets adhered to coated collagen surface.
# as §1
# [3] = system: platelets; test: Collagen induced platelet aggregation; assay type: cell-based, human; details: for Reversibility of aggregation block upon a wash of the inhibitor treated platelets: up to 30 μM Casin, FIG. 3D lower panel
# Protocol: FIG. 3D. Collagen induced aggregation is blocked by 10 μM Casin (upper panel) and is reversible (up to 30 μM Casin) upon a wash of the inhibitor treated platelets (lower panel).
# FIG. 4D. Collagen induced aggregation is blocked by NSC23766 in a dose-dependent fashion.
# FIG. 4E. Inhibition of collagen induced platelet aggregation by NSC23766 (50 μM) is reversible upon a wash of the inhibitor treated platelets.
# (§2) FIG. 5D. Collagen induced aggregation is inhibited by G04 (upper panel). Similar to collagen, thrombin induced aggregation (data not shown) is blocked by G04 in a dose-dependent fashion (upper panel) and is reversible upon a wash of the inhibitor treated platelets (lower panel).
# as §1, with “3C). […]” for “3C).”
# (§3) Finally, G04/Rhosin was also developed by us as a RhoA GTPase activation site inhibitor that transiently and specifically blocks RhoA activity and RhoA-mediated signaling functions (36, 37). […] Effect by collagen or thrombin is reversible (FIG. 5D, lower).
# [4] = system: C57Bl/6 murine carboxyfluorescein-labeled platelets; test: Recovery and survival of refrigerated platelets after infusion in congenic mice; assay type: in vivo; details: for Platelet 24-hour recovery in vivo / Platelet survival in vivo: refrigerated platelets stored at 0° C.; for Platelet 24-hour recovery in vivo: FIG. 6B; for Platelet survival in vivo: FIG. 6C
# Protocol: FIG. 6C-FIG. 6D. Platelet recovery at different time points. Donor platelets were stored at room temperature (squares) or pretreated with a mixed Rho GTPase inhibitors (50 μM NSC23766, 10 μM CASIN and/or 75 μM G04) or no drug (control). Data are presented as mean SD. *p<0.01 (Anova test with Bonferroni correction, between refrigerated with no inhibitor and refrigerated with triple inhibitor combination).
# FIG. 7 depicts effects of Rho GTPase inhibitor combinations on platelet survival upon transfusion. Platelet recovery at different time points is shown. Donor platelets were stored at room temp (squares) or pretreated with a mixed Rho GPase inhibitors (50 uM NSC23766, 10 uM CASIN and/or 75 uM G04) or no drug (Ctrl). Data are presented as mean±SD. *p<0.01 (Anova test with Bonferroni correction, between refrigerated with no inhibitor and refrigerated with triple inhibitor combination).
# A combination of CASIN (10 μM), G04 (75 μM) and/or NSC23766 were used in C57Bl/6 murine carboxyfluorescein-labeled platelets incubated at 0° C. or 5° C. for 3.5 hours. After re-warming, platelets were infused in 5 congenic mice (per group) and compared with control (room temperature stored) and refrigerated, untreated platelet group (FIG. 7). […] In a second experiment focused on the specific combinations with more activity to reverse the survival impairment associated with the use of Rho GTPase inhibitors, we analyzed the 24-hour recovery (%) and survival (hours) of platelets that had been stored in presence of several combinations of drugs (FIG. 6A).
# [5] = system: hematopoietic stem cell; details: cited from earlier work
# [6] = system: platelets; test: Platelet actin lamellopodia structure / spreading, rhodamine-phalloidin staining; assay type: cell-based, human; details: for Fibrinogen-mediated platelet actin lamellopodia structure: NSC23766 50 μM, FIG. 4C
# Protocol: FIG. 4C. Fibrinogen-mediated platelet actin lamellopodia structure is blocked by NSC23 766 (50 μM). Rhodamine conjugated phalloidin-staining of platelets adhered to coated collagen surface.
# FIG. 5C. U46629 ([…]/Fibrinogen (3 μM)-mediated platelet actin lamellopodia structure is blocked by G04 (30 μM). Rhodamine conjugated phalloidin-staining of platelets adhered to coated collagen surface.
# Similarly, Applicant has identified an inhibitor of Rac, NSC23766 (30-34), with an ability to impair Rac1 activation by multiple activating signals which may be crucial in platelet signaling associated with GpIb/GpX (35). NSC23766 was discovered in a structure-based virtual screening of compounds that fit into a surface groove of Rac 1 known to be critical for guanine nucleotide exchange factor specification (34) (FIG. 4A).
# as §3
# [7] = system: platelets; test: Thrombin induced platelet aggregation; assay type: cell-based, human
# From the text: as §2, §3
# [8] = target: T2, RhoA (Homo sapiens, UniProt P61586); details: binding to surface area sandwiching Trp58 of RhoA; cited from earlier work
# Target sequence in this assay (P61586 whole entry, species assumed): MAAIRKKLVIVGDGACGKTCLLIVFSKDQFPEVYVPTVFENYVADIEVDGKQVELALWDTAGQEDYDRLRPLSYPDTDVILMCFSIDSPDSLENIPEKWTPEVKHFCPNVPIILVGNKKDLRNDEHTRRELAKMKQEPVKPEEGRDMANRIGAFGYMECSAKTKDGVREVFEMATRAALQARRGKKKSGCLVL
# [9] = target: T2, RhoA; details: cited from earlier work
# Target sequence in this assay (P61586 whole entry, species assumed): as above
# [10] = target: T2, RhoA; test: Collagen-induced RhoA activity in platelets, GST-Rhotekin pulldown assay; assay type: cell-based; set-up: endogenous in cells; host or cells: human platelets; details: G04 50 μM, FIG. 5B
# Protocol: FIG. 5B. Collagen-induced RhoA activity is inhibited by Go4 (50 μM) in a GST-Rhotekin pulldown assay.
# as §3
# Target sequence in this assay (P61586 whole entry): as the sequence (P61586 whole entry, species assumed) above
# T1 sequence (P60953 whole entry): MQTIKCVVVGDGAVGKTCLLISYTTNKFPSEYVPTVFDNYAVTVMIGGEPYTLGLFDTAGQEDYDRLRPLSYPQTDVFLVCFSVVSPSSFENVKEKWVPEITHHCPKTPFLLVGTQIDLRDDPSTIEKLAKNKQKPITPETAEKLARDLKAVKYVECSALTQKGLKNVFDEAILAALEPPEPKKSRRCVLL
structure (smiles),measurement,setting,value
OCCNC1CCCc2c1[nH]c1ccc(-c3ccccc3)cc21 (stereo not drawn) [CASIN],Collagen-induced Cdc42 activation,[1],inhibits
same,Collagen-induced Cdc42 activation,[1]; listed as Casin,inhibited
same,Platelet actin filopodia structure / collagen-induced platelet shape changes,[2],prevents
same,Platelet actin filopodia structure / collagen-induced platelet shape changes,[2]; listed as Casin,blocked
same,Collagen induced aggregation,"[3]; 10 μM Casin, FIG. 3D upper panel",prevention
same,Collagen induced aggregation,"[3]; 10 μM Casin, FIG. 3D upper panel, listed as Casin",blocked
same,Reversibility of aggregation block upon a wash of the inhibitor treated platelets,[3],can be reversed
same,Reversibility of aggregation block upon a wash of the inhibitor treated platelets,[3]; listed as Casin,reversible
same,Platelet 24-hour recovery in vivo,[4],did not improve
same,Platelet survival in vivo,[4],did not improve
same,Hematopoietic stem cell aging,[5],suppress
CCN(CC)CCCC(C)Nc1nc(C)cc(Nc2ccc3nc(C)cc(N)c3c2)n1 (racemic) [NSC23766],Reversibility of inhibition of collagen induced platelet aggregation upon a wash,"[3]; NSC23766 50 μM, FIG. 4E",reversible
same,Collagen induced aggregation,"[3]; NSC23766, dose-dependent fashion, FIG. 4D",reversibly inhibits; also recorded: blocked
same,Fibrinogen-mediated platelet actin lamellopodia structure,[6],effectively block
same,Fibrinogen-mediated platelet actin lamellopodia structure,[6]; listed as NSC23 766,blocked
same,Reversal of the survival deficiency (storage lesion) induced by refrigerated storage,"[4]; platelets incubated at 0° C. or 5° C. for 3.5 hours, infused in congenic mice, 50 uM NSC23766, 10 uM CASIN and/or 75 uM G04, FIG. 7",did not result in significant reversal
N[C@H](Cc1c[nH]c2ccccc12)C(=O)N/N=C/c1ccc2nccnc2c1 [G04],Collagen induced aggregation,"[3]; G04, FIG. 5D upper panel",inhibited
same,Reversibility of effect on collagen induced aggregation,"[3]; G04, wash of inhibitor treated platelets, FIG. 5D lower",reversible
same,U46629/Fibrinogen-mediated platelet actin lamellopodia structure (platelet spreading),"[6]; G04 30 μM, U46629 10 mM, Fibrinogen 3 μM, FIG. 5C",inhibits; also recorded: blocked
same,Thrombin induced aggregation,"[7]; G04, dose-dependent fashion, data not shown",blocked
same,Reversibility of block of thrombin induced aggregation upon a wash,"[7]; G04, FIG. 5D lower panel",reversible
same,Platelet 24-hour recovery in vivo,[4],did not improve
same,Platelet survival in vivo,[4],did not improve
same,Kd,[8],submicromolar
same,GEF-catalyzed RhoA activation,[9],effectively inhibits
same,Collagen-induced RhoA activity,[10],specifically inhibits
same,Collagen-induced RhoA activity,[10]; listed as Go4,inhibited
